Usually IC50 stands for the midpoint of a concentration-inhibition curve. Low readings indicate greater potency in that assay, high ones weaker potency in that assay. In general, Papp B→A refers to the apparent permeability from the basolateral to the apical side of a cell layer. By efflux ratio is commonly meant the permeability from basolateral to apical divided by that in the opposite direction, in the common usage.

The values that follow come from patent publication US10022453B2 (BAYER PHARMA AKTIENGESELLSCHAFT, priority 2013, dated 2018).

Each structure is given as a SMILES string. Bounds are passed on as bounds.

In data set [1] the test system is NCI-H292. As to the kind of experiment: Cytotoxic effects, MTT assay. Format: cell-based. The note with it: Homo sapiens, 72 h incubation. The protocol: The cells are cultivated by a standard method, as indicated in the […] (ATCC) for the respective cell lines.
At the end of the selected incubation time, the MTT reagent is incubated with the cells for 4 h, followed by lysis of the cells overnight by addition of the detergent. […] The proliferation of cells which were not treated with test substance but were otherwise identically treated was defined as the 100% figure.
In general terms: Tetrazolium assays rely on reduction of a dye to a coloured formazan, in cell work by metabolically active cells.

A short description of data set [2]: Cell permeability, flux assay using Caco-2 cells. The note with it: human, Caco-2. As to the method: C-3 In Vitro Tests for Determining Cell Permeability
The cell permeability of a substance can be investigated by means of in vitro testing in a flux assay using Caco-2 cells [M. D. Troutman and D. R. Thakker, Pharm. […] For this purpose, the cells were cultured for 15-16 days on 24-well filter plates. For the determination of permeation, the respective working example was applied in a HEPES buffer to the cells either apically (A) or basally (B) and incubated for 2 hours. After 0 hours and after 2 hours, samples were taken from the cis and trans compartments. The samples were separated by HPLC (Agilent 1200, Böblingen, Germany) using reverse phase columns.
Of critical importance for toxophores which are released intracellularly is the permeability from B to A [Papp(B-A)] and the ratio of Papp(B-A) to Papp(A-B) (efflux ratio): the lower this permeability, the slower the active and passive transport processes of the substance through the monolayer of Caco-2 cells.

Data set [3] has as its target T1, human kinesin spindle protein KSP/Eg5 (Homo sapiens, UniProt P52732).
T1 construct: The motor domain of the human kinesin spindle protein KSP/Eg5; purchased tebu-bio/Cytoskeleton Inc 027EG01-XL
T1 sequence (P52732 18-359 limits assumed): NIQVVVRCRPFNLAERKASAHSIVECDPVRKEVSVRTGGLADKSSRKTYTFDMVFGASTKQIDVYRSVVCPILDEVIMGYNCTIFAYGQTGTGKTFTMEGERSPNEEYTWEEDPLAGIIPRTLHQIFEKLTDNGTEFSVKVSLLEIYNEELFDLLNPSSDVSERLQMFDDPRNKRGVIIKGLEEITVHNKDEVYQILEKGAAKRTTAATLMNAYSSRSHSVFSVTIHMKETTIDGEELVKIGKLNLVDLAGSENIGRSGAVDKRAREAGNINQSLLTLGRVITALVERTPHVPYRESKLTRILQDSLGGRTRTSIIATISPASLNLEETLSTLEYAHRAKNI
As to the kind of experiment: Inhibition of the kinesin spindle protein KSP/Eg5 (ATPase, malachite green). Format: biochemical. The note with it: 10 nM KSP motor domain, 500 μM ATP, 2 h RT. As to the method: C-1b Determination of the Inhibition of the Kinesin Spindle Protein KSP/Eg5 by Selected Examples
The motor domain of the human kinesin spindle protein KSP/Eg5 (from tebu-bio/Cytoskeleton Inc, No. 027EG01-XL) is incubated at a concentration of 10 nM with 50 μg/ml taxol- (from Sigma No. T7191-5MG) stabilized microtubuli (bovine or porcine, from tebu-bio/Cytoskeleton Inc) for 5 min at RT in 15 mM PIPES, pH 6.8 (5 mM MgCl2 and 10 mM DTT, from Sigma). The freshly prepared mixture is aliquoted into a 384-well MTP. The inhibitors to be examined at concentrations of 1.0×10^−6 M to 1.0×10^−13 and ATP (final concentration 500 μM, from Sigma) are then added. Incubation is at RT for 2 h. ATPase activity is detected by detecting the inorganic phosphate formed using malachite green (from Biomol). […] The individual data of the dose-activity curve are eight-fold determinations. The IC50 values are means of three independent experiments.

On to `CC(C)(C)[C@H](c1cc(-c2cc(F)ccc2F)cn1Cc1ccccc1)N(CCCN)C(=O)CSCCC(NC(=O)CCOCCOCCOCCOCCNC(=O)CCN1C(=O)CC(SC[C@H](N)C(=O)O)C1=O)C(=O)O.O=C(O)C(F)(F)F` (mixture of isomers) [Example 138, N-[19-(3(R/S)-{[(2R)-2-amino-2-carboxyethyl]sulphanyl}-2,5-dioxopyrrolidin-1-yl)-17-oxo-4,7,10,13-tetraoxa-16-azanonadecan-1-oyl]-R/S-{2-[(3-aminopropyl){(1R)-1-[1-benzyl-4-(2,5-difluorophenyl)-1H-pyrrol-2-yl]-2,2-dimethylpropyl}amino]-2-oxoethyl}homocysteine/trifluoroacetic acid (1:1)], for which the IC50 in data set [1] was at least 500 nM. In addition, in data set [2], the Papp B→A at 2 h was 0.17 ×10⁻⁶ cm/s and the efflux ratio at 2 h turned out to be 1.6.

Consider `CC(C)(C)[C@H](c1nc(-c2cc(F)ccc2F)cn1Cc1ccccc1)N(CC[C@H](N)C(=O)NCCN)C(=O)CO.O=C(O)C(F)(F)F.O=C(O)C(F)(F)F` [Example 80, Trifluoroacetic acid/(2S)-2-amino-N-(2-aminoethyl)-4-[{(1R)-1-[1-benzyl-4-(2,5-difluorophenyl)-1H-imidazol-2-yl]-2,2-dimethylpropyl}(glycoloyl)amino]butanamide (2:1)], for which, in data set [2], the Papp B→A at 2 h amounted to 20 ×10⁻⁶ cm/s and the efflux ratio at 2 h is 22. In data set [3], this compound displayed an IC50 of 3.72 nM.

With `CC(C)(C)[C@H](c1nc(-c2cc(F)ccc2F)cn1Cc1ccccc1)N(CC[C@H](N)C(=O)NCCNC(=O)CSC[C@H](N)C(=O)O)C(=O)CO.O=C(O)C(F)(F)F` [Example 97, S-(2-{[2-({(2S)-2-Amino-4-[{(1R)-1-[1-benzyl-4-(2,5-difluorophenyl)-1H-imidazol-2-yl]-2,2-dimethylpropyl}(glycoloyl)amino]butanoyl}amino)ethyl]amino}-2-oxoethyl)-L-cysteine/trifluoroacetic acid (1:1)], in data set [2], the basolateral-to-apical permeability (Papp B→A) at 2 h is 0.56 ×10⁻⁶ cm/s and the efflux ratio at 2 h turned out to be 2. Also, in data set [3], the IC50 came to 2.13 nM.

As to `CC(C)(C)[C@H](c1cc(-c2cc(F)ccc2F)cn1Cc1ccccc1)N(CCCN)C(=O)CO` [Example 98, N-(3-aminopropyl)-N-{(1R)-1-[1-benzyl-4-(2,5-difluorophenyl)-1H-pyrrol-2-yl]-2,2-dimethylpropyl}-2-hydroxyacetamide], the IC50 in data set [1] stood at 1.65 nM; in data set [3] it was 1.8 nM.

In turn, `CNC(=O)[C@@H](N)CCN(C(=O)CO)[C@@H](c1cc(-c2cc(F)ccc2F)cn1Cc1ccccc1)C(C)(C)C.O=C(O)C(F)(F)F` [Example 99, Trifluoroacetic acid/(2S)-2-amino-4-[{(1R)-1-[1-benzyl-4-(2,5-difluorophenyl)-1H-pyrrol-2-yl]-2,2-dimethylpropyl}(glycoloyl)amino]-N-methylbutanamide (1:1)] yielded an IC50 in data set [1] of 0.851 nM. In addition, in data set [2], the Papp B→A at 2 h turned out to be 30.3 ×10⁻⁶ cm/s and the efflux ratio at 2 h was found to be 8.7.

Consider `CC(C)(C)[C@@H](c1cc(-c2cc(F)ccc2F)cn1Cc1ccccc1)N(CCCN)C(=O)CO` [Example 102, N-(3-Aminopropyl)-N-{(1S)-1-[1-benzyl-4-(2,5-difluorophenyl)-1H-pyrrol-2-yl]-2,2-dimethylpropyl}-2-hydroxyacetamide], for which the IC50 came to 32.9 nM in data set [1] and 4.7 nM in data set [3].

`CC(C)(C)[C@H](c1cc(-c2cc(F)ccc2F)cn1Cc1ccccc1)N(CC[C@H](N)C(=O)NCCNC(=O)CN1C(=O)CC(SC[C@H](N)C(=O)O)C1=O)C(=O)CO.O=C(O)C(F)(F)F` (stereo partly drawn) [Example 135, S-[1-(2-{[2-({(2S)-2-Amino-4-[{(1R)-1-[1-benzyl-4-(2,5-difluorophenyl)-1H-pyrrol-2-yl]-2,2-dimethylpropyl}(glycoloyl)amino]butanoyl}amino)ethyl]amino}-2-oxoethyl)-2,5-dioxopyrrolidin-3-yl]-L-cysteine/trifluoroacetic acid (1:1)] had an IC50 in data set [1] of at least 500 nM. Moreover, in data set [2], the Papp B→A at 2 h is 0.78 ×10⁻⁶ cm/s and the efflux ratio at 2 h was found to be 4.

Turning to `CC(C)(C)[C@H](c1cc(-c2cc(F)ccc2F)cn1Cc1ccccc1)N(CC[C@H](N)C(=O)NCCNC(=O)CSC[C@H](N)C(=O)O)C(=O)CO.O=C(O)C(F)(F)F` [Example 158, S-(2-{[2-({(2S)-2-Amino-4-[{(1R)-1-[1-benzyl-4-(2,5-difluorophenyl)-1H-pyrrol-2-yl]-2,2-dimethylpropyl}(glycoloyl)amino]butanoyl}amino)ethyl]amino}-2-oxoethyl)-L-cysteine/trifluoroacetic acid (1:1)], the IC50 in data set [1] came to 22.2 nM. In addition, in data set [2], the Papp B→A at 2 h stood at 0.56 ×10⁻⁶ cm/s and the efflux ratio at 2 h is 2.2.

Regarding `CC(C)(C)[C@H](c1cc(-c2cc(F)ccc2F)cn1Cc1ccccc1)N(CC[C@H](N)C(=O)NCCNC(=O)CC[C@H](N)C(=O)O)C(=O)CO.O=C(O)C(F)(F)F` [Example 161, N-[2-({(2S)-2-Amino-4-[{(1R)-1-[1-benzyl-4-(2,5-difluorophenyl)-1H-pyrrol-2-yl]-2,2-dimethylpropyl}(glycoloyl)amino]butanoyl}amino)ethyl]-L-glutamine/trifluoroacetic acid (1:1)], the IC50 in data set [1] came out at 35.5 nM. In addition, the Papp B→A at 2 h in data set [2] was 0.16 ×10⁻⁶ cm/s.

`CC(C)(C)[C@H](c1cc(-c2cc(F)ccc2F)cn1Cc1ccccc1)N(CC[C@H](N)C(=O)NCCC(=O)NCCCC[C@H](N)C(=O)O)C(=O)CO.O=C(O)C(F)(F)F` [Example 162, N^6-(N-(2S)-2-Amino-4-[{(1R)-1-[1-benzyl-4-(2,5-difluorophenyl)-1H-pyrrol-2-yl]-2,2-dimethylpropyl (glycoloyl)amino]butanoyl}-beta-alanyl)-L-lysine/trifluoroacetic acid (1:1)]: the midpoint of inhibition in data set [1], the IC50, lay at 121 nM. Moreover, the Papp B→A at 2 h in data set [2] was found to be 0.2 ×10⁻⁶ cm/s.

For the compound `CC(=O)N(CCCN)[C@@H](c1nn(-c2cc(F)ccc2F)cc1Cc1ccccc1)C(C)(C)C` [Example 181, N-(3-Aminopropyl)-N-{(1R)-1-[4-benzyl-1-(2,5-difluorophenyl)-1H-pyrazol-3-yl]-2,2-dimethylpropyl}acetamide], the IC50 in data set [1] came out at 7.72 nM; in data set [3] it was 7.9 nM.

Consider `COCC(=O)N(CCCN)[C@@H](c1nn(-c2cc(F)ccc2F)cc1Cc1ccccc1)C(C)(C)C` [Example 182, N-(3-aminopropyl)-N-{(1R)-1-[4-benzyl-1-(2,5-difluorophenyl)-1H-pyrazol-3-yl]-2,2-dimethylpropyl}-2-methoxyacetamide], for which the IC50 in data set [1] was found to be 1.2 nM; in data set [3], 10.4 nM.

For `CC(C)(C)[C@H](c1nn(-c2cc(F)ccc2F)cc1Cc1ccccc1)N(CCCN)C(=O)c1ccc(F)cc1F` [Example 183, N-(3-aminopropyl)-N-{(1R)-1-[4-benzyl-1-(2,5-difluorophenyl)-1H-pyrazol-3-yl]-2,2-dimethylpropyl}-2,4-difluorobenzamide], the IC50 in data set [1] stood at 32.9 nM; in data set [3], 6.21 nM.

With `Cc1ccc(C(=O)N(CCCN)[C@@H](c2nn(-c3cc(F)ccc3F)cc2Cc2ccccc2)C(C)(C)C)cc1` [Example 184, N-(3-aminopropyl)-N-{(1R)-1-[4-benzyl-1-(2,5-difluorophenyl)-1H-pyrazol-3-yl]-2,2-dimethylpropyl}-4 methylbenzamide], the values for the IC50 in data set [1] and in data set [3] were 27.8 nM and 14.3 nM, respectively.

For `CCOCC(=O)N(CCCN)[C@@H](c1nn(-c2cc(F)ccc2F)cc1Cc1ccccc1)C(C)(C)C` [Example 185, N-(3-aminopropyl)-N-{(1R)-1-[4-benzyl-1-(2,5-difluorophenyl)-1H-pyrazol-3-yl]-2,2-dimethylpropyl}-2-ethoxyacetamide], the IC50 was 12 nM in data set [1] and 18 nM in data set [3].

The compound `CC(C)(C)[C@H](c1cc(-c2cc(F)ccc2F)cn1Cc1ccccc1)N(CC[C@H](N)C(=O)O)C(=O)CO.Cl` [Example 197, (2S)-2-Amino-4-[{(1R)-1-[1-benzyl-4-(2,5-difluorophenyl)-1H-pyrrol-2-yl]-2,2-dimethylpropyl}(glycoloyl)amino]butanoic acid hydrochloride (1:1)] came in with an IC50 in data set [1] of 7.35 nM. Besides, in data set [2], the Papp B→A at 2 h was 9.3 ×10⁻⁶ cm/s.
